# Reference: patent US20020019536A1, “NEW URETHANES, THIO AND DITHIO ANALOGUES AND THEIR USE AS INHIBITORS OF CHOLESTEROL BIOSYNTHESIS” (priority 1997, published 2002)
# Legend:
# [1] = target: T1, 2,3-epoxysqualene-lanosterol-cyclase (Rattus norvegicus, UniProt P48450); assay: In-vivo activity in the rat after oral administration: 2,3-epoxysqualene level in the liver
# T1 construct: Measuring the in-vivo Activity in the Rat after Oral Administration; from tissue; host or cells: living rat; 2,3-epoxysqualene measured in the liver
# T1 sequence (P48450 1-733): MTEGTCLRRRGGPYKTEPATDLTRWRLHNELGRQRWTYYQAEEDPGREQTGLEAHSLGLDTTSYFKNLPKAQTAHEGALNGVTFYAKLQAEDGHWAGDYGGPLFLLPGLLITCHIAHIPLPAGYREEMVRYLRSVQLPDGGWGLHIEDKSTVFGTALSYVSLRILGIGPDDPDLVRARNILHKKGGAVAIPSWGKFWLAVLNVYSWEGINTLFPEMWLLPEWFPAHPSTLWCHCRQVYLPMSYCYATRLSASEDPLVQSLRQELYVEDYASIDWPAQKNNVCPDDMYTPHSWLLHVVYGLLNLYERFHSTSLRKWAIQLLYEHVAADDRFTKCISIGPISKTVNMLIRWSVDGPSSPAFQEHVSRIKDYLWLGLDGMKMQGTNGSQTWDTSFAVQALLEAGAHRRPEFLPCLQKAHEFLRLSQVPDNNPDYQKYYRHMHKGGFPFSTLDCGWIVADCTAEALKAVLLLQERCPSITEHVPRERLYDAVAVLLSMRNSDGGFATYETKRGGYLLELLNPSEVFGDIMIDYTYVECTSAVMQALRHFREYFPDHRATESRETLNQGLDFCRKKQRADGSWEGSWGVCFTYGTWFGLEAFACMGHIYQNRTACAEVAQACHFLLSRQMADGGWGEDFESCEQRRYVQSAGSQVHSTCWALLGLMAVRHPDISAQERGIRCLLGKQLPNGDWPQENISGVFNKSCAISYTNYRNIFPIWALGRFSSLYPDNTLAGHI
# Method: II. Measuring the in-vivo Activity in the Rat after Oral Administration
# Inhibiting the enzyme 2,3-epoxysqualene-lanosterol-cyclase causes an increase in the 2,3-epoxisqualene levels in the liver and plasma. The quantity of 2,3-epoxysqualene formed therefore serves as a direct measurement of the potency on the animal as a whole. The amounts were determined using the method described in J. Lipid. Res. 38, 564-575, [1997] at t=3 or 8 hours after administration of the substance in concentrations of c=0.01, 0.03, 0.1, 0.3 and 1.0 mg/kg. Table 3 which follows gives the results obtained for the abovementioned substances A, B, C, E, G, H, O and R by way of example.
# In the control animals there were no measurable 2,3-epoxisqualene levels under these conditions.
# [2] = tested on: Pen. notatum CBS 19746; assay: Fungistatic activity, series dilution test; assay type: cell-based; conditions: Sabouraud broth, 2 to 4 days at 26° C.
# Method: (§1) V. Determining the Fungistatic Activity
# (§2) The fungistatic activity was determined by the series dilution test (microtitre system). Sabouraud broth was used as the nutrient medium. The inoculum amounted to about 10^4 to 10^5 CFU/ml (CFU=colony-forming units); the incubation period was 2 to 4 days at 26° C.
# (§3) The lowest concentration which allows no visible growth (minimum inhibitory concentration MIC) was determined.
# (§4) The abovementioned compounds B, E, G, I, K, L, N, Q and R were tested. The MIC is given in μg/ml.
# [3] = tested on: Rhod. rubra 49; assay: Fungistatic activity, series dilution test; assay type: cell-based; conditions: Sabouraud broth, 2 to 4 days at 26° C.
# Method: as §1, §2, §3, §4
# [4] = tested on: Trich. mentagrophytes ATCC 9129; assay: Fungistatic activity, series dilution test; assay type: cell-based; conditions: Sabouraud broth, 2 to 4 days at 26° C.
# Method: as §1, §2, §3, §4
# [5] = tested on: Asp. niger ATCC 16404; assay: Fungistatic activity, series dilution test; assay type: cell-based; conditions: Sabouraud broth, 2 to 4 days at 26° C.
# Method: as §1, §2, §3, §4
# [6] = tested on: Sacch. carisbergensis ATCC 9080; assay: Fungistatic activity, series dilution test; assay type: cell-based; conditions: Sabouraud broth, 2 to 4 days at 26° C.
# Method: as §1, §2, §3, §4
# [7] = tested on: Cand. albicans ATCC 10231; assay: Fungistatic activity, series dilution test; assay type: cell-based; conditions: Sabouraud broth, 2 to 4 days at 26° C.
# Method: as §1, §2, §3, §4
# [8] = Lipid reduction in the normolipaemic golden hamster; assay type: in vivo; conditions: compared with control group
# Method: III. Lipid Reduction in the Normolipaemic Golden Hamster This was determined using the method described in J. Lipid. Res. 38, 564-575, (1997). At the end of the experiment the total cholesterol, β-lipoprotein-cholesterol and HDL-cholesterol were determined and compared with the values of a control group which were fed without any test substance. The lipid-lowering activity of the abovementioned compounds E, G and I was tested.
# [9] = tested on: 14C-acetate incorporation into the steroids which can be precipitated with digitonin (cholesterol biosynthesis); assay: Inhibition of 14C-acetate incorporation into the steroids which can be precipitated with digitonin; assay type: cell-based; conditions: for IC50: 14C-acetate incorporation
# Text: I. Measuring the Inhibition of ^14C-acetate incorporation into the steroids which can be precipitated with digitonin: The inhibitory effect was investigated using the method described in J. Lipid. Res. 37, 148-157 [1996] at test concentrations of 10^−8 and 10^−9 mol/l.
# [10] = tested on: HaCat cells (human keratinocytes); assay: Inhibition of cell proliferation (BrdU ELISA); assay type: cell-based; conditions: 10^−6 mol/l, average of three measurements, given as a percentage of the control (control 100%)
# Method: IV. Inhibition of Cell Proliferation
# HaCat cells (human keratinocytes) are seeded at a density of 10,000 cells per well in a 96 well microtitre plate. The culture medium used is Dulbecco's modified eagle medium (DMEM) with the addition of 10% calf serum. The cells are incubated for two days in an incubator, then the test substance, dissolved in dimethyl sulphoxide and diluted with culture medium, is added. After another two days incubation, 5-bromo-2′-deoxyuridine is added and the test results are determined according to the instructions (Boehringer Mannheim, Cell proliferation ELISA, BrdU(colorimetric)). The BrdU measurement was carried out at 380-490 nm in the Plate Reader made by Bio Rad.
# The proliferation-inhibiting activity of compounds E, G and H was investigated. The average of three measurements was calculated and the results are given as a percentage of the control (Table 5).
# [11] = 0.01 mg/kg oral, 3 h after administration
# [12] = 0.01 mg/kg oral, 8 h after administration
# [13] = 0.03 mg/kg oral, 3 h after administration
# [14] = 0.03 mg/kg oral, 8 h after administration
# [15] = 0.1 mg/kg oral, 3 h after administration
# [16] = 0.1 mg/kg oral, 8 h after administration
# [17] = 0.3 mg/kg oral, 3 h after administration
# [18] = 0.3 mg/kg oral, 8 h after administration
SMILES,"2,3-epoxysqualene concentration in the liver (rat) [1, 11] [µg/g]","2,3-epoxysqualene concentration in the liver (rat) [1, 12] [µg/g]","2,3-epoxysqualene concentration in the liver (rat) [1, 13] [µg/g]","2,3-epoxysqualene concentration in the liver (rat) [1, 14] [µg/g]","2,3-epoxysqualene concentration in the liver (rat) [1, 15] [µg/g]","2,3-epoxysqualene concentration in the liver (rat) [1, 16] [µg/g]","2,3-epoxysqualene concentration in the liver (rat) [1, 17] [µg/g]","2,3-epoxysqualene concentration in the liver (rat) [1, 18] [µg/g]",MIC Pen. [2] [µg/mL],MIC Rhod. [3] [µg/mL],MIC Trich. [4] [µg/mL],MIC Asp. [5] [µg/mL],MIC Sacc. [6] [µg/mL],MIC Cand. [7] [µg/mL],HDL-cholesterol ([8]; dose 0.5 mg/kg/day) [%],Total cholesterol ([8]; dose 0.5 mg/kg/day) [%],β-Lipoprotein-cholesterol ([8]; dose 0.5 mg/kg/day) [%],HDL-cholesterol ([8]; dose 1.5 mg/kg/day) [%],Total cholesterol ([8]; dose 1.5 mg/kg/day) [%],β-Lipoprotein-cholesterol ([8]; dose 1.5 mg/kg/day) [%],other results
"CN(C)Cc1ccc([C@H]2CC[C@H](N(C)C(=S)Oc3ccc(Cl)cc3)CC2)cc1.Cl [G, trans-O-(4-chlorophenyl)-N-4-[4-(dimethylaminomethyl)-phenyl]cyclohexyl-N-methylthiocarbamate-hydrochloride]",5.2,30.1,12.8,42.3,66.2,115.3,57.5,225.5,1,8,1,4,32,4,−21.1,−27.7,−40.2,−26.5,−31.1,−42.2,HDL-cholesterol ([8]; dose 4.9 mg/kg/day): −24.3%; Total cholesterol ([8]; dose 4.9 mg/kg/day): −26.5%; β-Lipoprotein-cholesterol ([8]; dose 4.9 mg/kg/day): −33.2%; IC50 [9]: 0.4 nM; percentage inhibition of 14C-acetate incorporation ([9]; test concentration 10^−8 mol/l): −85%; percentage inhibition of 14C-acetate incorporation ([9]; test concentration 10^−9 mol/l): −43%
"CN(C)Cc1ccc([C@H]2CC[C@H](N(C)C(=O)Oc3ccc(Cl)cc3)CC2)cc1.Cl [E, trans-O-(4-chlorophenyl)-N-4-[4-(dimethylaminomethyl)-phenyl]cyclohexyl-N-methylcarbamate-hydrochloride]",20.3,32.7,39.0,44.6,92.5,191.5,63.4,180.0,2,16,2,4,128,16,−18.2,−22.5,−27.5,−24.0,−34.1,−48.4,Cell proliferation (% of control) [10]: 19.6%; HDL-cholesterol ([8]; dose 4.9 mg/kg/day): −25.1%; Total cholesterol ([8]; dose 4.9 mg/kg/day): −34.3%; β-Lipoprotein-cholesterol ([8]; dose 4.9 mg/kg/day): −45.1%; IC50 [9]: 0.3 nM; percentage inhibition of 14C-acetate incorporation ([9]; test concentration 10^−8 mol/l): −85%; percentage inhibition of 14C-acetate incorporation ([9]; test concentration 10^−9 mol/l): −57%
